{
  "source": "patent US20120022026A1",
  "about": "“METHOD OF TREATING CANCER” (ERASMUS UNIVERSITY MEDICAL CENTER ROTTERDAM, priority 2009, published 2012)",
  "key": {"PARP": {"tested_on": "PARP", "conditions": "cited from earlier work"}, "PARP-2": {"biological_target": "PARP-2 (Homo sapiens, UniProt Q9UGN5)", "sequence (Q9UGN5 whole entry, species assumed)": "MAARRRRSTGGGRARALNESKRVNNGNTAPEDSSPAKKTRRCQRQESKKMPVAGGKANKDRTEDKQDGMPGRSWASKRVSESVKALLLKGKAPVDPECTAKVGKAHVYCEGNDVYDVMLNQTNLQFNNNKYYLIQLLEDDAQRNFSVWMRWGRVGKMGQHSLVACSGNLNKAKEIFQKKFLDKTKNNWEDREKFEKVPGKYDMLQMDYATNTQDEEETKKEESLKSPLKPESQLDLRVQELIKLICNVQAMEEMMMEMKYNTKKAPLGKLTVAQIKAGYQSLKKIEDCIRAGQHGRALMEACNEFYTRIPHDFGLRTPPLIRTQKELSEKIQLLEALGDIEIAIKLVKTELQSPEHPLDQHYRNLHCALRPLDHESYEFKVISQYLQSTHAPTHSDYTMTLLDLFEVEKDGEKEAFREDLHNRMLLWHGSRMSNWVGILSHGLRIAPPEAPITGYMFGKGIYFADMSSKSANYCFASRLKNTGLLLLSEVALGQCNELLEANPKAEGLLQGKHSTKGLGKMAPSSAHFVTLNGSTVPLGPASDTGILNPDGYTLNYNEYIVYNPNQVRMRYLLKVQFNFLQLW", "conditions": "cited from earlier work"}, "BRCA2 [1]": {"tested_on": "BRCA2", "assay": "Immunoblotting of BRCA2 in HeLa cells under mild hyperthermia", "format": "cell-based", "conditions": "exposed to 41° C. in presence of 10 μM MG132 (FIG. 2C)", "protocol": "(§1) Embryonic stem (ES) cells were cultured on gelatin-coated dishes in a 1:1 mixture of Dulbecco's modified Eagle's medium (DMEM) and buffalo rat liver conditioned medium, supplemented with 10% FBS (Hyclone), 0.1 mM nonessential amino acids (Biowhittaker), […] β-mercaptoethanol (Sigma) and 500 U ml-1 leukemia inhibitory factor. Other cells were cultured in following media, supplemented with 10% (v/v) FCS and streptomycin/penicillin: 1:1 mixture of DMEM and Ham's F10 (HeLa), DMEM (human melanoma [BLM], osteosarcoma [U2OS], cervix carcinoma cells), L-15 (human squamous lung carcinoma [SW-1573]), Eagle's MEM (mouse osteosarcoma [MOS], rat rhabdomyosarcoma [R1]). Cells were maintained at 37° C. in an atmosphere containing 5% (HeLa, BLM), 10% (U2OS, cervix carcinoma cells), 2% (R1) or 0% (SW-1573) CO2. Patients with cervical cancer expressed written informed consent to provide fresh biopsies during an investigation under general anesthesia, and use the tumor specimens for this study. This study was approved by the medical ethical committee of the AMC (MEC #03/137). […]\n(§2) Cells were lysed in SDS sample buffer (2% SDS, 10% glycerol, 60 mM Tris-HCl pH 6.8). […] Protein concentration was determined by the Lowry protein assay, extracts were supplemented with 0.5% […] and 0.02% bromophenol blue. […]"}, "recombinant PARP-1": {"biological_target": "recombinant PARP-1 (Homo sapiens, UniProt P09874)", "sequence (P09874 whole entry, species assumed)": "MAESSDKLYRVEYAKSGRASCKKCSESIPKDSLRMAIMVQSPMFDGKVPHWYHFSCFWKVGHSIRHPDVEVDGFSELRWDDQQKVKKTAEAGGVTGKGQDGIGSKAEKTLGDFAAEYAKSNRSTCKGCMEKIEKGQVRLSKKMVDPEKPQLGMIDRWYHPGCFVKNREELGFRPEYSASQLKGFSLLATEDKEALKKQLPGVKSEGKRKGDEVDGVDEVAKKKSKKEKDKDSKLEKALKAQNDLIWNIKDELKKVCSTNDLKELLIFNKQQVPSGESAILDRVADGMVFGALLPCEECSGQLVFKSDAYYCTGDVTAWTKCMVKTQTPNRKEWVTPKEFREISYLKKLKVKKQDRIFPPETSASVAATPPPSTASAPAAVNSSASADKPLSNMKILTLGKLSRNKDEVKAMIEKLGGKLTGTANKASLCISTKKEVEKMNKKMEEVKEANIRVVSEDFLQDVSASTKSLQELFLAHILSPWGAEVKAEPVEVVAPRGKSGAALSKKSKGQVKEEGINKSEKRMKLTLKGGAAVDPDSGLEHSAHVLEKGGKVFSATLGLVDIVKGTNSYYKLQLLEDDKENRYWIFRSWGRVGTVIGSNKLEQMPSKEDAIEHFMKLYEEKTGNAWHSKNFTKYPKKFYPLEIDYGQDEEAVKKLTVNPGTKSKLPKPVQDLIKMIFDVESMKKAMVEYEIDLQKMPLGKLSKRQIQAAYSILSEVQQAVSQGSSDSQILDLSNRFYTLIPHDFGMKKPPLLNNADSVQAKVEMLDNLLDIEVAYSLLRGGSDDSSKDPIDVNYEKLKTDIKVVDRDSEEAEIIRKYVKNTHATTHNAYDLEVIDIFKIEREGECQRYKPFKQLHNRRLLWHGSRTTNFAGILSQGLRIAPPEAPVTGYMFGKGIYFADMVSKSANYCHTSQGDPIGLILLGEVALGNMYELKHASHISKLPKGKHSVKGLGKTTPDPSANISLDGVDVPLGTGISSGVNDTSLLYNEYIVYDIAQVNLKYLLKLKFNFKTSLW", "conditions": "recombinant PARP-1, cell-free assay; read-out: competitive inhibition Ki; cited from earlier work"}, "R1 cells": {"tested_on": "R1 cells", "assay": "Clonogenic assay, R1 cells with mild hyperthermia", "format": "cell-based, rat", "conditions": "R1, 41° C.; for clonogenic survival: combination of 100 μM NU1025 and 100 nM 17-DMAG (FIG. 4B)", "protocol": "(§3) Embryonic stem (ES) cells were cultured on gelatin-coated dishes in a 1:1 mixture of Dulbecco's modified Eagle's medium (DMEM) and buffalo rat liver conditioned medium, supplemented with 10% FBS (Hyclone), 0.1 mM nonessential amino acids (Biowhittaker), […] β-mercaptoethanol (Sigma) and 500 U ml-1 leukemia inhibitory factor. Other cells were cultured in following media, supplemented with 10% (v/v) FCS and streptomycin/penicillin: 1:1 mixture of DMEM and Ham's F10 (HeLa), DMEM (human melanoma [BLM], osteosarcoma [U2OS], cervix carcinoma cells), L-15 (human squamous lung carcinoma [SW-1573]), Eagle's MEM (mouse osteosarcoma [MOS], rat rhabdomyosarcoma [R1]). Cells were maintained at 37° C. in an atmosphere containing 5% (HeLa, BLM), 10% (U2OS, cervix carcinoma cells), 2% (R1) or 0% (SW-1573) CO2. Patients with cervical cancer expressed written informed consent to provide fresh biopsies during an investigation under general anesthesia, and use the tumor specimens for this study. This study was approved by the medical ethical committee of the AMC (MEC #03/137). The biopsies were minced using scalpel, then incubated in Liberase Blendzyme enzyme cocktail (Roche) in DMEM for 60 min at 37° C. and plated on glass coverslips in fresh culture medium. All incubations at elevated temperature were performed in a heated waterbath or in a water-filled cuvette placed in an incubator set to required temperature, in an atmosphere containing appropriate CO2 concentration.\nThe following inhibitors were used at the indicated final concentrations: 17-DMAG, 100 nM (Sigma-Aldrich), NU1025, 100 μM (Sigma-Aldrich), MG-132, 10 μM (Calbiochem).\n(§4) In experiments involving NU1025 or irradiation, cells were trypsinized, counted and plated at appropriate concentrations into 60- or 35 mm dishes. […] Cells were then incubated for 7-14 days, fixed, stained and colonies exceeding 50 cells were counted. […] In experiments involving a combination of NU1025 and 17-DMAG, cells were first treated as indicated and subsequently trypsinized, counted and plated at various concentrations. […]"}, "BRCA2 [2]": {"tested_on": "BRCA2", "assay": "Immunoblotting of BRCA2 in BLM cells under mild hyperthermia", "format": "cell-based, human", "conditions": "hyperthermia plus 100 nM 17-DMAG vs heat without 17-DMAG or 17-DMAG at 37° C. (FIG. 4A)", "protocol": "as §1, §2"}, "[3]": {"tested_on": "HR-mediated gene targeting", "assay": "Gene targeting efficiency assay in ES cells", "format": "cell-based", "conditions": "mouse ES cells, 41° C. plus 100 nM 17-DMAG vs heat without 17-DMAG or 17-DMAG at 37° C. (FIG. 1C)", "protocol": "as §3, with “All incubations at elevated temperature were performed in a heated waterbath or in a water-filled cuvette placed in an incubator set to required temperature, in an atmosphere containing appropriate CO2 concentration.” left out"}, "U2OS cells": {"tested_on": "U2OS cells", "assay": "Clonogenic assay, U2OS cells with mild hyperthermia", "format": "cell-based, human", "conditions": "41° C., 100 μM NU1025 (FIG. 3A)", "protocol": "as §1, with “CO2.” for “CO2. Patients with cervical cancer expressed written informed consent to provide fresh biopsies during an investigation under general anesthesia, and use the tumor specimens for this study. This study was approved by the medical ethical committee of the AMC (MEC #03/137).”\nas §4"}, "SW-1573 cells": {"tested_on": "SW-1573 cells", "assay": "Clonogenic assay, SW-1573 cells", "format": "cell-based, human", "protocol": "as §1, with “CO2.” for “CO2. Patients with cervical cancer expressed written informed consent to provide fresh biopsies during an investigation under general anesthesia, and use the tumor specimens for this study. This study was approved by the medical ethical committee of the AMC (MEC #03/137).”\nas §4"}, "MOS cells": {"tested_on": "MOS cells", "assay": "Clonogenic assay, MOS cells", "format": "cell-based, mouse", "protocol": "as §1, with “CO2.” for “CO2. Patients with cervical cancer expressed written informed consent to provide fresh biopsies during an investigation under general anesthesia, and use the tumor specimens for this study. This study was approved by the medical ethical committee of the AMC (MEC #03/137).”\nas §4"}, "[4]": {"conditions": "PARP inhibitor potency as listed, isoform not stated"}},
  "note": "Read-outs that look alike come from different tables or passages of the source. Residues, ends and D or L forms follow the SMILES beside them. *: point of attachment. Cbz = O=C(OCc1ccccc1)*",
  "data": [
    {"compound": "Nc1ncnc2c1ncn2C1OC(C(=O)N2CCN(CC(=O)Nc3cccc4c3CNC4=O)CC2)C(O)C1O", "note": "[EB-47, 1-piperazineacetamide,4-[1-(6-amino-9H-purin-9-yl)-1-deoxy-6-D-ribofuranuron]-N-(2,3-dihydro-1H-isoindol-4-yl)-1-one]", "values": [
      {"measurement": "IC50", "setting": "PARP; [4]", "result": 45, "unit": "nM"}
    ]},
    {"compound": "Cc1nc2c(c(=O)[nH]1)CSCC2", "note": "[DR2313, 2-methyl-3,5,7,8-tetrahydrothiopyrano[4,3-d]pyrimidine-4-one]", "values": [
      {"measurement": "IC50", "setting": "PARP-2", "result": 240, "unit": "nM"}
    ]},
    {"compound": "CC(C)C[C@@H](C=O)NC(=O)[C@H](CC(C)C)NC(=O)[C@H](CC(C)C)NC(=O)OCc1ccccc1", "note": "[MG132] (Cbz-Leu-Leu-Leu-aldehyde)", "values": [
      {"measurement": "BRCA2 levels on hyperthermia", "setting": "BRCA2 [1]", "result": "no decrease of BRCA2 levels"}
    ]},
    {"compound": "Oc1cccc2c(O)nccc12", "note": "[IQD, 1,5-dihydroxyisoquinoline]", "values": [
      {"measurement": "IC50", "setting": "PARP; [4]", "result": 390, "unit": "nM"}
    ]},
    {"compound": "CN(C)c1ccc(O)c2c1C[C@H]1C[C@H]3[C@H](N(C)C)C(O)=C(C(N)=O)C(=O)[C@@]3(O)C(O)=C1C2=O", "note": "[minocycline]", "values": [
      {"measurement": "Ki", "setting": "recombinant PARP-1", "result": 13.8, "unit": "nM"}
    ]},
    {"compound": "O=C1NCCc2c(OCCCCN3CCCCC3)cccc21", "note": "[DPQ, 3,4-dihydro-5[4-(1-piperindinyl)butoxy]-1(2H)-isoquinoline]", "values": [
      {"measurement": "IC50", "setting": "PARP; [4]", "result": 40, "unit": "nM"}
    ]},
    {"compound": "Nc1ccc2c3c(cccc13)C(=O)NC2=O", "note": "[4-ANI, 4-amino-1,8-naphthalimide]", "values": [
      {"measurement": "IC50", "setting": "PARP", "result": 180, "unit": "nM"}
    ]},
    {"compound": "CO[C@H]1/C=C\\C=C(/C)C(=O)NC2=CC(=O)C(NCCN(C)C)=C(C[C@@H](C)C[C@H](OC)[C@H](O)[C@@H](C)/C=C(\\C)[C@@H]1OC(N)=O)C2=O", "note": "[17-DMAG, 17-dimethylaminoethylamino-17-demethoxy-geldanamycin]", "values": [
      {"measurement": "clonogenic survival", "setting": "R1 cells", "result": "dramatically reduced"},
      {"measurement": "levels of BRCA2 protein", "setting": "BRCA2 [2]", "result": "further reduced"},
      {"measurement": "efficiency of HR-mediated gene targeting", "setting": "[3]", "result": "further reduced"}
    ]},
    {"compound": "NC(=O)c1cccc(N)c1", "note": "[3-ABA, 3-aminobenzamide]", "values": [
      {"measurement": "EC50", "setting": "PARP; PARP inhibitor potency as listed", "result": "[…]"}
    ]},
    {"compound": "NC(=O)c1cccc2ncc(-c3ccc(Cl)cc3)nc12", "note": "[3-(4-chlorophenyl)quinoxaline-5-carboxamide]", "values": [
      {"measurement": "IC50", "setting": "PARP-2", "result": 7, "unit": "nM"}
    ]},
    {"compound": "O=C1N=C2SCC=C2c2ccccc21", "note": "[TIQ-A, thieno[2,3-c]isoquinolin-5-one]", "values": [
      {"measurement": "IC50", "setting": "PARP; [4]", "result": 450, "unit": "nM"}
    ]},
    {"compound": "Cc1nc2c(O)cccc2c(=O)[nH]1", "note": "[NU1025, 8-hydroxy-2-methylquinazoline-4-one]", "values": [
      {"measurement": "clonogenic survival compared to hyperthermia alone", "setting": "U2OS cells", "result": "decrease in clonogenic survival"},
      {"measurement": "clonogenic survival compared to hyperthermia alone", "setting": "R1 cells; 100 μM NU1025 (FIG. 3B)", "result": "decrease in clonogenic survival"},
      {"measurement": "clonogenic survival", "setting": "R1 cells", "result": "dramatically reduced"},
      {"measurement": "sensitivity to inhibitor alone", "setting": "SW-1573 cells; SW-1573, NU1025 alone, data not shown", "result": "insensitive"},
      {"measurement": "survival of hyperthermia-treated cells", "setting": "SW-1573 cells; SW-1573, hyperthermia plus NU1025, data not shown", "result": "did not reduce survival"},
      {"measurement": "sensitivity to inhibitor alone", "setting": "MOS cells; NU1025 alone, data not shown", "result": "insensitive"},
      {"measurement": "survival of hyperthermia-treated cells", "setting": "MOS cells; hyperthermia plus NU1025, data not shown", "result": "did not reduce survival"},
      {"measurement": "IC50", "setting": "PARP", "result": 400, "unit": "nM"}
    ]}
  ]
}
